Consider 6 molecules from patent publication US20250296938A1, “Compounds that Interact with the Ras Superfamily for the Treatment of Cancers, Inflammatory Diseases, Rasopathies, and Fibrotic Disease” (SHY Therapeutics, LLC, priority 2018, published 2025).

Where two headings read alike, the source gives them in different places.

Holding throughout (assay): Ras GTP binding domain inhibition assay (Cy3-GTP/Cy5-GTP competition)
The subject of one assay is HRas wild type. Also on record: species or system human. Particulars: at 20 μM; for HRAS wild type + SOS: % inh.: with SOS; for HRas wild type % inh.: without SOS. The method in brief:
(§1)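 Ni-plate immobilised His-Ras, overnight 4 °C; cpd 20 μM (or dilution series for IC50), 1% DMSO, 3 h RT; optional His-Sos […] last hour; Cy3- or Cy5-GTP 100 nM, 45 min RT; 3× wash; bound fluorescence read.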

For a further assay, the target named is T1, KRas G12D mutant (Homo sapiens, UniProt P01116, G12D).
T1 construct: fused on or other part: His tag, used for capture on nickel-coated plates
Particulars: at 20 μM. The method, boiled down:
as §1

In another assay the target is Rho-A (Homo sapiens, UniProt P61586). The method in brief:
(§2)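 First, His-tagged protein is coated on nickel wells overnight at 4 °C. Next, compound (20 μM single point or serial dilution) is added for 3 h at room temperature, with or without Sos exchange factor in the last hour. Finally, 100 nM labelled GTP binds for 45 min and retained signal is measured.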

The target in a further assay is Rac-1 (Homo sapiens, UniProt P63000). The method in brief: as §2
The mark [1] stands for this setting: with SOS, read-out: KRas G12D mutant + SOS: % inh.
Where [2] appears, read: without SOS, read-out: KRas G12D mutant: % inh.
[3] abbreviates: with SOS, read-out: Rho-A + SOS: % inh.
Setting [4] is: without SOS, read-out: Rho-A: % inh.
Setting [5] is: with SOS, read-out: Rac-1 + SOS: % inh.
Setting [6] is: without SOS, read-out: Rac-1: % inh.

For the molecule `CO[C@H]1C[C@@H](Nc2nc(-c3nccn3C)nc3sccc23)C1` [drawing 1038], in the assay on HRas wild type, the “HRAS wild type + SOS: % inh.” value is on record as “D (76-100% inhibition)”. Also, the “HRas wild type % inh.” value in the assay with HRas wild type was “C (51-75% inhibition)”. Also, the inhibition at 20 µM on KRas G12D mutant (setting [1]) lay in the range of 76 to 100%; at KRas G12D mutant (setting [2]), 76 to 100%; on Rho-A (setting [3]), 26 to 50%; on Rho-A (setting [4]) it was 76 to 100%; at Rac-1 (setting [5]), 76 to 100%; at Rac-1 (setting [6]), 76 to 100%.
`CO[C@H]1C[C@@H](Nc2nc(-c3nccn3C)nc3sc(-c4ccn(C)n4)c(-c4ccccc4)c23)C1.Cl` [drawing 1040]: the “HRAS wild type + SOS: % inh.” value in the assay with HRas wild type is “D (76-100% inhibition)”. Also, in the assay on HRas wild type, the “HRas wild type % inh.” value is “B (26-50% inhibition)”. Also, the inhibition at 20 µM lay within 51 to 75% at KRas G12D mutant (setting [1]); 26 to 50% at KRas G12D mutant (setting [2]); 51 to 75% at Rho-A (setting [3]); 51 to 75% at Rho-A (setting [4]); 76 to 100% at Rac-1 (setting [5]); 51 to 75% on Rac-1 (setting [6]).
On to `CO[C@H]1C[C@H](Nc2nc(-c3nccn3C)nc3sc(-c4ccn(C)n4)c(-c4ccccc4)c23)C1` [drawing 1041], for which the “HRAS wild type + SOS: % inh.” value in the assay with HRas wild type is reported as “D (76-100% inhibition)”. Further, the “HRas wild type % inh.” value in the assay with HRas wild type is on record as “B (26-50% inhibition)”. Besides, the inhibition at 20 µM lay within 51 to 75% on KRas G12D mutant (setting [1]); 26 to 50% at KRas G12D mutant (setting [2]); 51 to 75% at Rho-A (setting [3]); 51 to 75% on Rho-A (setting [4]); 51 to 75% on Rac-1 (setting [5]); 51 to 75% on Rac-1 (setting [6]).
For `CN(C)CCOCCNc1nc(-c2nccn2C)nc2sc(-c3ccn(C)n3)c(-c3ccccc3)c12` [drawing 1042], the “HRAS wild type + SOS: % inh.” value with HRas wild type is recorded as “D (76-100% inhibition)”. Also, the “HRas wild type % inh.” value in the assay with HRas wild type was “B (26-50% inhibition)”. Moreover, the inhibition at 20 µM lay in the range of 51 to 75% at KRas G12D mutant (setting [1]); 26 to 50% on KRas G12D mutant (setting [2]); 51 to 75% on Rho-A (setting [3]); 51 to 75% on Rho-A (setting [4]); 51 to 75% on Rac-1 (setting [5]); 51 to 75% at Rac-1 (setting [6]).
As for `Cn1ccc(-c2sc3nc(-c4nccn4C)nc(N[C@H]4C[C@@H](O)C4)c3c2-c2ccccc2)n1` [drawing 1043], the “HRAS wild type + SOS: % inh.” value with HRas wild type was “A (1-25% inhibition)”. Further, the “HRas wild type % inh.” value in the assay with HRas wild type is “C (51-75% inhibition)”. For the same molecule, the inhibition at 20 µM at KRas G12D mutant (setting [1]) is 0%; at KRas G12D mutant (setting [2]), 0%; on Rho-A (setting [3]) it was 26 to 50%; at Rho-A (setting [4]) it was 26 to 50%; on Rac-1 (setting [5]) it was 1 to 25%; on Rac-1 (setting [6]), 1 to 25%.
On to `CO[C@H]1CC[C@@H](Nc2nc(-c3nccn3C)nc3sc(-c4ccn(C(C)C)n4)c(C)c23)C1` [drawing 1054], for which the “HRAS wild type + SOS: % inh.” value with HRas wild type is “D (76-100% inhibition)”. The “HRas wild type % inh.” value in the assay on HRas wild type is given as “C (51-75% inhibition)”. Further, the inhibition at 20 µM on KRas G12D mutant (setting [1]) was 51 to 75%; at KRas G12D mutant (setting [2]), 51 to 75%; on Rho-A (setting [3]), 76 to 100%; on Rho-A (setting [4]), 76 to 100%; on Rac-1 (setting [5]) it was 51 to 75%; at Rac-1 (setting [6]), 51 to 75%.
